From patent US5004833A, “KS-501 derivatives” (Kyowa Hakko Kogyo Co., Ltd., priority 1988, dated 1991)
Converted amounts (≈) assume the structure as drawn. Read-outs that look alike come from different tables or passages of the source.

Test system: washed platelet
Test: Effect on platelet aggregation (washed platelets stimulated with thrombin or platelet-activating factor, Born method)
Assay type: cell-based, white rabbit
Conditions: for IC50: Oryctolagus cuniculus, 0.05 h, 3 min incubation, 37° C.
Method: 8.5 vol of blood was collected from the carotid arteries of a white rabbit, and placed in a tube containing 1.5 vol of a citrate-dextrose solution (71 mM citric acid, 85 mM sodium citrate and 111 mM dextrose). The thus obtained blood was centrifuged at 200 xg for 15 minutes to obtain platelet-rich plasma (PRP). This PRP was centrifuged at 650×g for 10 minutes to obtain platelet precipitates. After washing with Ca^++ -free Tyrode's solution containing 2 mM ethylenebis(oxyethylenenitrilo)tetraacetic acid (hereinafter referred to as EGTA), the platelet precipitates were centrifuged again at 650×g for 10 minutes for washing. The resulting platelet precipitates were suspended in Ca^++ -free Tyrode's solution containing 0.25% bovine serum albumin to reach a density of 5×10^8 cells/ml. After allowing to stand for about 30 minutes, 1 mM CaCl2 or 1 mM EGTA was added to the suspension of the washed platelet. The mixture was allowed to stand for further 30 minutes, and then platelet aggregation was measured.
The platelet aggregation was measured with an aggregometer, ACGRETEC TE-500 (product of Erma Optical Co., Ltd.) to which the Born method was applied.
First, 10 μl portions of a test compound solution were added to 0.2 ml portions of the suspension of the washed platelet, while stirring at 1,000 rpm and at 37° C. After incubation at 37° C. for 3 minutes, 10 μl portions of a stimulating agent thrombin (final concentration : 0.05 U/ml) or platelet-activating factor (final concentration: 10^-10 M) were added thereto, respectively to initiate the reaction. The rate of platelet aggregation inhibition of the test compound were calculated from the maximum aggregation rate obtained by the use of the test compound and the maximum aggregation rate obtained by use of only the solvent used for dissolving the test compound, according to the following equation. The effect of the test compound was determined as the drug concentration which gave the inhibition rate of 50%. [formula] A: maximum aggregation rate in use of the solvent alone B: maximum aggregation rate in use of the test compound

Q: CCCCCCCc1cc(O)cc(OC(=O)c2c(O)cc(O)cc2CCCCCCC)c1 [Compound 4] was tested. Which IC50 (stimulating agent platelet-activating factor, final concentration 10^-10 M, read-out: IC50 (platelet aggregation inhibition, stimulating agent platelet-activating factor)) did it give?
A: The IC50 was 45 µg/mL (≈ 102 µM).

Q: What about the IC50 (Platelet, stimulating agent thrombin, final concentration 0.05 U/ml, read-out: IC50 (platelet aggregation inhibition, stimulating agent thrombin)) of the same molecule?
A: The IC50 was 72 µg/mL (≈ 163 µM).

Q: What about the “inhibition of platelet aggregation, in words” value (stimulated with thrombin and platelet-activating factor) of the same molecule?
A: The value was “inhibited platelet aggregation”.
